The text below walks through data of patent US9765074B2, “Inhibitors of the renal outer medullary potassium channel” (Merck Sharp & Dohme Corp., priority 2013, dated 2017).

The target in the test is T1, hROMK (hKir1.1) (Homo sapiens, UniProt P48048).
T1 construct: expressed in transfected cells
T1 sequence (P48048 1-391): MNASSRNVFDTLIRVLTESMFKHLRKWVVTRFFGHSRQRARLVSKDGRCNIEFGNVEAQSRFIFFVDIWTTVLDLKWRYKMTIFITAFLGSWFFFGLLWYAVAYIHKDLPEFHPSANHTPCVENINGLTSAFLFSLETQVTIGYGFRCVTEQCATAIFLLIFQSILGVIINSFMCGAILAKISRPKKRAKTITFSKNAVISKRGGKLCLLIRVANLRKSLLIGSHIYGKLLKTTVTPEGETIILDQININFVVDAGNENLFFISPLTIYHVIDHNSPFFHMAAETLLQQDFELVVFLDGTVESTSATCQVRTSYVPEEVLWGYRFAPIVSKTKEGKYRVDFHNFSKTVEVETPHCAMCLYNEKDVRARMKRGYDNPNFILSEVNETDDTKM
Nature of the test: Thallium Flux Assay (ROMK channel functional thallium flux, FLIPR-Tetra). The format is cell-based. Conditions: HEK293 cells stably expressing hROMK (hKir1.1); 30 min compound incubation. The essentials:
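HEK293 cells stably expressing hKir1.1, loaded with FluxOR dye for 90 min, then preincubated with compound for 30 min at ambient temperature with 0.3 mM ouabain and probenecid. Stimulated with 3 mM thallium/0.3 mM potassium (final); fluorescence read ~10 min. Normalized to 3 μM reference ROMK inhibitor; IC50 from inhibition of flux.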
In general, IC50 refers to the point on the concentration scale where inhibition reaches its midpoint. With `CC1=C(N2CCC3(CCN([C@@H](C)Cc4ccc(-n5cnnn5)nn4)CC3)C2=O)COC1=O` (single isomer, unassigned) [Example 293], inhibition was half-maximal at 10 nM (IC50). `CC1=C(N2CCC3(CCN([C@H](C)Cc4ccc(-n5cnnn5)nn4)CC3)C2=O)COC1=O` (single isomer, unassigned) [Example 294] yielded an IC50 of 4 nM.

`CC1=C(N2CCC3(CCN(C(CO)Cc4ccc(-n5cnnn5)nc4)CC3)C2=O)COC1=O` (single isomer, unassigned) [Example 295] had an IC50 of 20 nM.

Molecule `CC1=C(N2CCC3(CCN([C@H](CO)Cc4ccc(-n5cnnn5)nc4)CC3)C2=O)COC1=O` (single isomer, unassigned) [Example 296] registered an IC50 of 20 nM. As for `CC1=C(N2CCC3(CCN(C(C)(C)C(O)c4ccc(-n5cnnn5)nc4)CC3)C2=O)COC1=O` (single isomer, unassigned) [Example 297], the figure is 10 nM; as for `CC1=C(N2CCC3(CCN(C(C)(C)C(O)c4ccc(-n5cnnn5)nc4)CC3)C2=O)COC1=O` (single isomer, unassigned) [Example 298], 10 nM. The result for `CC1=C(N2CCC3(CCN(C(C)(C)C(O)c4ccc(-n5cnnn5)cn4)CC3)C2=O)COC1=O` (single isomer, unassigned) [Example 299] reads 10 nM; that for `CC1=C(N2CCC3(CCN(C(C)(C)C(O)c4ccc(-n5cnnn5)cn4)CC3)C2=O)COC1=O` (single isomer, unassigned) [Example 300], 20 nM; that for `CC1CC2(CCN(C(C)(C)C(O)c3cnc(-n4cnnn4)cn3)CC2)C(=O)N1C1=CC(=O)OC1` (single isomer, unassigned) [Example 301, 8-(1-(5-(1H-tetrazol-1-yl)pyrazin-2-yl)-1-hydroxy-2-methylpropan-2-yl)-3-methyl-2-(5-oxo-2,5-dihydrofuran-3-yl)-2,8-diazaspiro[4.5]decan-1-one], 10 nM. Regarding `CC1CC2(CCN(C(C)(C)C(O)c3cnc(-n4cnnn4)cn3)CC2)C(=O)N1C1=CC(=O)OC1` (single isomer, unassigned) [Example 302, 8-(1-(5-(1H-tetrazol-1-yl)pyrazin-2-yl)-1-hydroxy-2-methylpropan-2-yl)-3-methyl-2-(5-oxo-2,5-dihydrofuran-3-yl)-2,8-diazaspiro[4.5]decan-1-one], the IC50 worked out at 100 nM. Take `CC1CC2(CCN(C(C)(C)C(O)c3cnc(-n4cnnn4)cn3)CC2)C(=O)N1C1=CC(=O)OC1` (single isomer, unassigned) [Example 303, 8-(1-(5-(1H-tetrazol-1-yl)pyrazin-2-yl)-1-hydroxy-2-methylpropan-2-yl)-3-methyl-2-(5-oxo-2,5-dihydrofuran-3-yl)-2,8-diazaspiro[4.5]decan-1-one]: the IC50 came out at 2000 nM.

Consider `CC1CC2(CCN(C(C)(C)C(O)c3cnc(-n4cnnn4)cn3)CC2)C(=O)N1C1=CC(=O)OC1` (single isomer, unassigned) [Example 304, 8-(1-(5-(1H-tetrazol-1-yl)pyrazin-2-yl)-1-hydroxy-2-methylpropan-2-yl)-3-methyl-2-(5-oxo-2,5-dihydrofuran-3-yl)-2,8-diazaspiro[4.5]decan-1-one], for which inhibition was half-maximal at 910 nM (IC50). The result for `CC1=C(N2CCC3(CCN(C[C@H](O)c4cnc(-n5cnnn5)cc4C(F)F)CC3)C2=O)COC1=O` (stereo in doubt) [Example 147, 8-{2-[4-(difluoromethyl)-6-(1H-tetrazol-1-yl)pyridin-3-yl]-2-hydroxyethyl}-2-(4-methyl-5-oxo-2,5-dihydrofuran-3-yl)-2,8-diazaspiro[4.5]decan-1-one] reads 40 nM; that for `O=C1C=C(N2CCC3(CCN(C[C@H](O)c4ccc(-n5cnnn5)nc4)CC3)C2=O)CO1` [Example 1, 8-{(2R)-2-Hydroxy-2-[6-(1H-tetrazol-1-yl)pyridin-3-yl]ethyl}-1-oxo-2-(5-oxo-2,5-dihydrofuran-3-yl)-2-aza-8-azoniaspiro[4.5]decane], 10 nM; that for `Cc1nc(-n2cnnn2)ccc1[C@@H](O)CN1CCC2(CC1)CCN(C1=CC(=O)OC1)C2=O` [Example 3, 8-{(2R)-2-hydroxy-2-[2-methyl-6-(1H-tetrazol-1-yl)pyridin-3-yl]ethyl}-1-oxo-2-(5-oxo-2,5-dihydrofuran-3-yl)-2-aza-8-azoniaspiro[4.5]decane], 20 nM. Turning to `Cc1nc(-n2cnnn2)ccc1[C@H](O)CN1CCC2(CC1)CCN(C1=CC(=O)OC1)C2=O` [Example 4, 8-{(2S)-2-hydroxy-2-[2-methyl-6-(1H-tetrazol-1-yl)pyridin-3-yl]ethyl}-1-oxo-2-(5-oxo-2,5-dihydrofuran-3-yl)-2-aza-8-azoniaspiro[4.5]decane], the IC50 came to 50 nM. The molecule `Cc1nc([C@@H](O)CN2CCC3(CC2)CCN(C2=CC(=O)OC2)C3=O)ccc1-n1cnnn1` [Example 5, 8-{(2S)-2-hydroxy-2-[6-methyl-5-(1H-tetrazol-1-yl)pyridin-2-yl]ethyl}-1-oxo-2-(5-oxo-2,5-dihydrofuran-3-yl)-2-aza-8-azoniaspiro[4.5]decane] gave an IC50 of 40 nM. `Cc1cc([C@H](O)CN2CCC3(CC2)CCN(C2=CC(=O)OC2)C3=O)ncc1-n1cnnn1` [Example 6, 8-{(2R)-2-hydroxy-2-[4-methyl-5-(1H-tetrazol-1-yl)pyridin-2-yl]ethyl}-1-oxo-2-(5-oxo-2,5-dihydrofuran-3-yl)-2-aza-8-azoniaspiro[4.5]decane] came in with an IC50 of 50 nM. As for `Cc1cc([C@@H](O)CN2CCC3(CC2)CCN(C2=CC(=O)OC2)C3=O)ncc1-n1cnnn1` [Example 7, 8-{(2S)-2-hydroxy-2-[4-methyl-5-(1H-tetrazol-1-yl)pyridin-2-yl]ethyl}-1-oxo-2-(5-oxo-2,5-dihydrofuran-3-yl)-2-aza-8-azoniaspiro[4.5]decane], the figure is 80 nM. The result for `Cc1nc([C@H](O)CN2CCC3(CC2)CCN(C2=CC(=O)OC2)C3=O)ccc1-n1cnnn1` [Example 8, 8-{(2R)-2-hydroxy-2-[6-methyl-5-(1H-tetrazol-1-yl)pyridin-2-yl]ethyl}-1-oxo-2-(5-oxo-2,5-dihydrofuran-3-yl)-2-aza-8-azoniaspiro[4.5]decane] reads 60 nM.

In the case of `O=C1C=C(N2CCC3(CCN(C[C@H](O)c4cnc(-n5cnnn5)nc4)CC3)C2=O)CO1` [Example 9, 8-{(2R)-2-hydroxy-2-[2-(1H-tetrazol-1-yl)pyrimidin-5-yl]ethyl}-1-oxo-2-(5-oxo-2,5-dihydrofuran-3-yl)-2-aza-8-azoniaspiro[4.5]decane], the IC50 was 80 nM. For `Cc1cc(-n2cnnn2)ccc1[C@@H](O)CN1CCC2(CC1)CCN(C1=CC(=O)OC1)C2=O` [Example 11, 8-{(2R)-2-hydroxy-2-[2-methyl-4-(1H-tetrazol-1-yl)phenyl]ethyl}-1-oxo-2-(5-oxo-2,5-dihydrofuran-3-yl)-2-aza-8-azoniaspiro[4.5]decane], the IC50 was 20 nM. The result for `Cc1cc(-n2cnnn2)ccc1[C@H](O)CN1CCC2(CC1)CCN(C1=CC(=O)OC1)C2=O` [Example 12, 8-{(2S)-2-hydroxy-2-[2-methyl-4-(1H-tetrazol-1-yl)phenyl]ethyl}-1-oxo-2-(5-oxo-2,5-dihydrofuran-3-yl)-2-aza-8-azoniaspiro[4.5]decane] reads 10 nM. In turn, `O=C1C=C(N2CCC3(CCN(C[C@H](O)c4ccc(-n5cnnn5)cc4F)CC3)C2=O)CO1` [Example 13, 8-{(2R)-2-[2-fluoro-4-(1H-tetrazol-1-yl)phenyl]-2-hydroxyethyl}-1-oxo-2-(5-oxo-2,5-dihydrofuran-3-yl)-2-aza-8-azoniaspiro[4.5]decane] registered an IC50 of 20 nM. The molecule `O=C1C=C(N2CCC3(CCN(C[C@@H](O)c4ccc(-n5cnnn5)cc4F)CC3)C2=O)CO1` [Example 14, 8-{(2S)-2-[2-fluoro-4-(1H-tetrazol-1-yl)phenyl]-2-hydroxyethyl}-1-oxo-2-(5-oxo-2,5-dihydrofuran-3-yl)-2-aza-8-azoniaspiro[4.5]decane] came in with an IC50 of 20 nM.

Regarding `COc1cc(-n2cnnn2)ccc1[C@@H](O)CN1CCC2(CC1)CCN(C1=CC(=O)OC1)C2=O` [Example 15, 8-{(2R)-2-hydroxy-2-[2-methoxy-4-(1H-tetrazol-1-yl)phenyl]ethyl}-1-oxo-2-(5-oxo-2,5-dihydrofuran-3-yl)-2-aza-8-azoniaspiro[4.5]decane], the IC50 amounted to 10 nM. `COc1cc(-n2cnnn2)ccc1[C@H](O)CN1CCC2(CC1)CCN(C1=CC(=O)OC1)C2=O` [Example 16, 8-{(2S)-2-hydroxy-2-[2-methoxy-4-(1H-tetrazol-1-yl)phenyl]ethyl}-1-oxo-2-(5-oxo-2,5-dihydrofuran-3-yl)-2-aza-8-azoniaspiro[4.5]decane] displayed an IC50 of 20 nM. Regarding `CC1=C(N2CCC3(CCN(C[C@H](O)c4cnc(-n5cnnn5)nc4)CC3)C2=O)COC1=O` [Example 17, 8-{(2R)-2-hydroxy-2-[2-(1H-tetrazol-1-yl)pyrimidin-5-yl]ethyl}-2-(4-methyl-5-oxo-2,5-dihydrofuran-3-yl)-1-oxo-2-aza-8-azoniaspiro[4.5]decane], the IC50 was determined as 30 nM.

With `CC1=C(N2CCC3(CCN(C[C@H](O)c4ccc(-n5cnnn5)nc4)CC3)C2=O)COC1=O` [Example 18, 8-{(2R)-2-hydroxy-2-[6-(1H-tetrazol-1-yl)pyridin-3-yl]ethyl}-2-(4-methyl-5-oxo-2,5-dihydrofuran-3-yl)-1-oxo-2-aza-8-azoniaspiro[4.5]decane], the midpoint of inhibition, the IC50, lay at 10 nM.
